Each structure is given as a SMILES string. Where a name gives a salt, the structure may show the parent alone.

Common to all, as to type: physicochemical
Data set [1] in a line: Differential scanning calorimetry (DSC) thermogram. As to conditions: heated 30 to 350° C. at 10° C./min. Here is the method:
The differential scanning calorimetry (DSC) thermograms analyses were obtained using a DSC-821 Mettler-Toledo instrument, serial number 5117423874. Samples were weighed into an aluminium pan, an aluminium lid placed on top of the sample and compressed with a brass rod. Samples were equilibrated at 30° C. and heated at 10° C./min to 350° C. The instrument was calibrated using indium and zinc standards.
FIG. 1 illustrates the DSC thermogram of the sodium salt of 5-cyclopropyl-2-{[2-(2,6-difluorophenyl)pyrimidin-5-yl]amino}benzoic acid.

A short description of data set [2]: Dynamic Vapour Sorption (DVS) profile. As to conditions: 25° C. The method, then:
Dynamic Vapour Sorption (DVS) profiles were obtained using an Igasorp Hiden Isochema instrument (serial number IGA-SA-066). After an initial stabilization period, at least two isotherms (at 25° C.) were obtained for each sample: a moisture sorption from 0 to 95% relative humidity and moisture desorption from 95% relative humidity to dryness. Both isotherms were performed in 10% humidity steps, with a minimum time of 10 minutes and a maximum time of 30 minutes for each step.
FIG. 2 illustrates the DVS pattern of the sodium salt of 5-cyclopropyl-2-{[2-(2,6-difluorophenyl)pyrimidin-5-yl]amino}benzoic acid. Mass increase was measured at 80% (0.7% increase) and 90% (4.2% increase) relative humidity (RH).

A further data set can be described thus: Water-solubility test. To be noted: 25° C. (room temperature), expressed as acid. Here is the method: The solubility of Example 1 in water at room temperature was determined together with the solubility of the corresponding free acids.
Data set [3] is described as follows: Crystallisation tests of salts with pharmaceutically acceptable bases. As to conditions: for Solid form obtained: salt crystallisation tests. The text has this:
Crystallisation tests of salts of 5-cyclopropyl-2-{[2-(2,6-difluorophenyl)pyrimidin-5-yl]amino}benzoic acid with a broad range of pharmaceutically acceptable bases (comprising among others ammonia, L-arginine, choline, lysine, magnesium methoxide, meglumine, potassium methoxide and sodium hydroxide) in a range of different pharmaceutically acceptable solvents (including among others acetone, acetonitrile, ethyl acetate, chloroform, N,N-dimethylformamide, ethanol, isopropanol, nitromethane, dimethyl carbonate, methanol, methyl tert-butyl ether, tetrahydrofurane, diisopropyl ether, cyclohexane, butanol, water, 3-pentanone, toluene, chlorobenzene and isobutyl acetate) have been undertaken.
The salts from L-arginine, choline, magnesium methoxide and potassium methoxide were crystalline but hygroscopic. Additionally, some of said salts have different polymorphic phases.

For `O=C(O)c1cc(C2CC2)ccc1Nc1cnc(-c2c(F)cccc2F)nc1` [Ex. 1, 5-cyclopropyl-2-{[2-(2,6-difluorophenyl)pyrimidin-5-yl]amino}benzoic acid, sodium salt], in data set [1], the “Thermal stability (decomposition) by DSC” value was “does not suffer any decomposition at low-medium temperatures”. Also, the “Mass increase (DVS)” value in data set [2] (80% relative humidity) came to 0.7%; in data set [2] (90% relative humidity), 4.2%. Besides, in data set [2] (sorption 0 to 95% RH), the “Hygroscopicity according to DVS” value is “not hygroscopic”. For the same compound, the “Hysteresis in DVS sorption/desorption” value in data set [2] (sorption/desorption isotherms) is “no hysteresis”. For the same compound, the “Water Solubility @ 25° C. (mg/mL as acid)” value in “Water-solubility test” (sodium salt) turned out to be 1.87 mg/mL. For the same compound, the “Hygroscopicity / deliquescence of the salt” value in data set [3] is “neither hygroscopic nor deliquescent”.
As to `O=C(O)c1cc(C2CC2)ccc1Nc1cnc(-c2c(F)cccc2F)nc1` [Example C1, 5-cyclopropyl-2-{[2-(2,6-difluorophenyl)pyrimidin-5-yl]amino}benzoic acid], the “Water Solubility @ 25° C. (mg/mL as acid)” value in “Water-solubility test” came out at 0.03 mg/mL.
On to `N=C(N)NCCCC(N)C(=O)O.O=C(O)c1cc(C2CC2)ccc1Nc1cnc(-c2c(F)cccc2F)nc1` [salt from L-arginine], for which, in data set [3], the “Hygroscopicity / deliquescence of the salt” value was “hygroscopic” and the Solid form obtained result is “crystalline”.
For `C[N+](C)(C)CCO.O=C([O-])c1cc(C2CC2)ccc1Nc1cnc(-c2c(F)cccc2F)nc1` [salt from choline] the same measures were “hygroscopic” and “crystalline”.
Turning to `NCCCCC(N)C(=O)O.O=C(O)c1cc(C2CC2)ccc1Nc1cnc(-c2c(F)cccc2F)nc1` [salt from lysine], the Solid form obtained result in data set [3] is given as “either oils or amorphous solids”.
The same measure, in the same setting: the value for `CNCC(O)C(O)C(O)C(O)CO.O=C(O)c1cc(C2CC2)ccc1Nc1cnc(-c2c(F)cccc2F)nc1` [salt from meglumine] was “either oils or amorphous solids”.
On to `O=C([O-])c1cc(C2CC2)ccc1Nc1cnc(-c2c(F)cccc2F)nc1.[K+]` [salt from potassium methoxide], for which, in data set [3], the “Hygroscopicity / deliquescence of the salt” value is listed as “hygroscopic” and the Solid form obtained entry is reported as “crystalline”.

For the origin of these results see patent US8501943B2, “Sodium salt of 5-cyclopropyl-2-{[2-(2,6-difluorophenyl)pyrimidin-5-yl]amino}benzoic acid as DHODH inhibitor” (Almirall, S.A., priority 2009, dated 2013).
